From the supplement of paper PMC11061612

Columns and labels:
Experiment in all cases: Bliss excess, mean over the matrix (fraction); higher = more synergy
[1] = system: SNU-175 (Colorectal Carcinoma)
How it was run: (§1)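 Cell lines in DMEM/F12 or RPMI with 10% FBS were plated in 1536-well plates, held 24 hours at 37°C, 5% CO2, then given two-drug dose matrices for 72 hours (DMSO typically 0.2%). Viability was read by CellTiter-Glo 2.0 luminescence and scaled as inhibition from 0 (vehicle wells) to 1 (blank wells). Combination Emax is the second-highest inhibition in the matrix; Bliss excess is observed combination effect minus expected EA + EB − EA·EB, EA and EB being single-agent effects.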

[2] = system: PANC-02-03 (Pancreatic Carcinoma)
How it was run: as §1

[3] = system: OVTOKO (Ovarian Carcinoma)
How it was run: as §1

[4] = system: JHH-1 (Hepatocellular Carcinoma)
How it was run: as §1

[5] = system: NCI-H1155 (Non-Small Cell Lung Carcinoma)
How it was run: as §1

[6] = system: AsPC-1 (Pancreatic Carcinoma)
How it was run: as §1

RT4 (Bladder Carcinoma) = system: RT4 (Bladder Carcinoma)
How it was run: as §1

[7] = system: SK-MM-2 (Plasma Cell Myeloma)
How it was run: as §1

KYM-1 (Rhabdomyosarcoma) = system: KYM-1 (Rhabdomyosarcoma)
How it was run: as §1

[8] = system: SJRH30 (Rhabdomyosarcoma)
How it was run: as §1

[9] = system: RMG-I (Ovarian Carcinoma)
How it was run: as §1

[10] = system: NCI-H1755 (Lung Adenocarcinoma)
How it was run: as §1

HuO-3N1 (Osteosarcoma) = system: HuO-3N1 (Osteosarcoma)
How it was run: as §1

[11] = system: NKM-1 (Acute Myeloid Leukemia)
How it was run: as §1

[12] = system: RPMI-8866 (Chronic Myelogenous Leukemia)
How it was run: as §1

[13] = system: KYSE-70 (Esophageal Squamous Cell Carcinoma)
How it was run: as §1

[14] = system: HSC-3 (Oral Cavity Carcinoma)
How it was run: as §1

[15] = system: OV-90 (Ovarian Carcinoma)
How it was run: as §1

[16] = system: Caov-3 (Ovarian Carcinoma)
How it was run: as §1

[17] = system: AN3-CA (Endometrial Carcinoma)
How it was run: as §1

| SMILES | Bliss excess [1] | Bliss excess [2] | Bliss excess [3] | Bliss excess [4] | Bliss excess [5] | Bliss excess [6] | Bliss excess (RT4 (Bladder Carcinoma)) | Bliss excess [7] | Bliss excess (KYM-1 (Rhabdomyosarcoma)) | Bliss excess [8] | Bliss excess [9] | Bliss excess [10] | Bliss excess (HuO-3N1 (Osteosarcoma)) | Bliss excess [11] | Bliss excess [12] | Bliss excess [13] | Bliss excess [14] | Bliss excess [15] | Bliss excess [16] | Bliss excess [17] |
| --- | --- | --- | --- | --- | --- | --- | --- | --- | --- | --- | --- | --- | --- | --- | --- | --- | --- | --- | --- | --- |
| COc1cccc(OCCCN)c1-c1cc(Nc2cnc(C#N)cn2)n[nH]1 [Prexasertib] + Cc1cc2ncnn2cc1Nc1ncc2c(n1)n(C1CCOCC1)c(=O)n2C [AZD7648] (first compound max 1 µM, 7x7, partner max 10 µM) | 0.0311 | -0.0019 | -0.0079 | 0.0093 | 0.0039 | -0.0242 | -0.0045 | -0.0512 | -0.0078 | -0.0311 | -0.0235 | -0.0249 | -0.0498 | -0.0271 | 0.0455 | -0.0383 | -0.0096 | 0.0252 | -0.0376 | -0.0393 |
| CCc1c2c(nc3ccc(O)cc13)-c1cc3c(c(=O)n1C2)COC(=O)[C@]3(O)CC [SN-38] + O=C(c1cc(Cc2n[nH]c(=O)c3ccccc23)ccc1F)N1CCN(C(=O)C2CC2)CC1 [Olaparib] (first compound max 0.3 µM, 7x7, partner max 10 µM) | 0.0238 | 0.0609 | – | 0.0041 | 0.0532 | -0.0277 | 0.0702 | -0.0056 | 0.0383 | 0.0591 | 0.0057 | 0.0419 | 0.075 | 0.0274 | 0.0155 | 0.0423 | 0.0263 | 0.0633 | 0.0886 | – |
| CC1(C)CCC(CN2CCN(c3ccc(C(=O)NS(=O)(=O)c4ccc(NCC5CCOCC5)c([N+](=O)[O-])c4)c(Oc4cnc5[nH]ccc5c4)c3)CC2)=C(c2ccc(Cl)cc2)C1 [Venetoclax] + COc1cc(Nc2ncc3c(n2)-c2ccc(Cl)cc2C(c2c(F)cccc2OC)=NC3)ccc1C(=O)O [Alisertib] (first compound max 1 µM, 7x7, partner max 10 µM) | 0.007 | -0.0527 | -0.0508 | 0.0308 | 0.346 | -0.0701 | 0.0354 | 0.0207 | 0.0069 | 0.0315 | -0.0513 | -0.0281 | -0.0154 | 0.0087 | 0.0475 | -0.0084 | 0.0079 | -0.0536 | -0.119 | 0.0374 |
| Cc1cc2ncnn2cc1Nc1ncc2c(n1)n(C1CCOCC1)c(=O)n2C [AZD7648] + C[C@@H]1COCCN1C2=NC(=NC(=C2)C3(CC3)[S@](=N)(=O)C)C4=C5C=CNC5=NC=C4 [AZD6738] (first compound max 10 µM, 7x7, partner max 10 µM) | -0.0374 | 0.0561 | 0.0118 | 0.0354 | 0.0038 | 0.0133 | 0.0354 | 0.0022 | 0.0015 | 0.0113 | 0.0557 | 0.0513 | 0.0042 | -0.0051 | -0.028 | 0.0213 | -0.0299 | -0.0156 | 0.0433 | 0.0515 |
| Cc1cc2ncnn2cc1Nc1ncc2c(n1)n(C1CCOCC1)c(=O)n2C [AZD7648] + CN(C)CCCOc1ccc(-c2ccc3ncc4c(c3c2)n(C2CCOCC2)c(=O)n4C)cn1 [AZD0156] (first compound max 10 µM, 7x7, partner max 1 µM) | -0.0021 | 0.0002 | -0.0537 | 0.0063 | 0.0397 | -0.0291 | 0.0212 | -0.0552 | 0.0278 | 0.0105 | -0.0322 | 0.0118 | -0.0416 | -0.0039 | -0.0363 | 0.0213 | 0.0174 | -0.0374 | -0.0085 | -0.0224 |
| Cc1c2c(nn1C)CSCc1cc(n(C)n1)CSc1cc(c3ccccc3c1)OCCCc1c(C(=O)O)n(C)c3c-2c(Cl)ccc13 [AZD5991] + CC1(C)CCC(CN2CCN(c3ccc(C(=O)NS(=O)(=O)c4ccc(NCC5CCOCC5)c([N+](=O)[O-])c4)c(Oc4cnc5[nH]ccc5c4)c3)CC2)=C(c2ccc(Cl)cc2)C1 [Venetoclax] (first compound max 1 µM, 7x7, partner max 1 µM) | 0.107 | -0.0304 | -0.0027 | 0.128 | -0.0079 | -0.0698 | 0.135 | 0.0209 | 0.0117 | 0.0289 | -0.0289 | -0.0422 | 0.0087 | 0.0517 | -0.0138 | -0.0296 | 0.005 | -0.0303 | 0.0262 | 0.111 |
| COc1cccc2c1C(=O)c1c(O)c3c(c(O)c1C2=O)C[C@@](O)(C(=O)CO)C[C@@H]3O[C@H]1C[C@H](N)[C@H](O)[C@H](C)O1 [Doxorubicin] + Cc1cc2ncnn2cc1Nc1ncc2c(n1)n(C1CCOCC1)c(=O)n2C [AZD7648] (first compound max 1 µM, 7x7, partner max 10 µM) | 0.0265 | 0.0001 | -0.0578 | -0.0314 | 0.138 | -0.033 | 0.039 | -0.0137 | 0.0837 | 0.122 | -0.0445 | 0.104 | -0.0523 | 0.0803 | 0.193 | 0.0271 | 0.0907 | 0.0011 | 0.024 | -0.0534 |
| CC1(C)CCC(CN2CCN(c3ccc(C(=O)NS(=O)(=O)c4ccc(NCC5CCOCC5)c([N+](=O)[O-])c4)c(Oc4cnc5[nH]ccc5c4)c3)CC2)=C(c2ccc(Cl)cc2)C1 [Venetoclax] + CCN(CCO)CCCOc1ccc2c(Nc3cc(CC(=O)Nc4cccc(F)c4)[nH]n3)ncnc2c1 [AZD2811] (first compound max 1 µM, 7x7, partner max 1 µM) | -0.0552 | -0.0283 | -0.0183 | -0.0166 | 0.132 | -0.0755 | 0.0704 | -0.0099 | -0.0017 | 0.0544 | -0.055 | -0.0135 | 0.0175 | 0.0697 | 0.133 | 0.0245 | -0.0475 | -0.0546 | -0.0544 | 0.0345 |
| Cc1c2c(nn1C)CSCc1cc(n(C)n1)CSc1cc(c3ccccc3c1)OCCCc1c(C(=O)O)n(C)c3c-2c(Cl)ccc13 [AZD5991] + CCN(CCO)CCCOc1ccc2c(Nc3cc(CC(=O)Nc4cccc(F)c4)[nH]n3)ncnc2c1 [AZD2811] (first compound max 1 µM, 7x7, partner max 1 µM) | -0.0794 | -0.0029 | 0.0153 | 0.0603 | 0.0911 | -0.0331 | 0.11 | -0.0451 | 0.0646 | 0.0922 | 0.0126 | 0.0561 | 0.0023 | 0.0291 | 0.149 | 0.0651 | 0.0617 | 0.0136 | 0.0236 | 0.0922 |
| CC1(C)CCC(CN2CCN(c3ccc(C(=O)NS(=O)(=O)c4ccc(NCC5CCOCC5)c([N+](=O)[O-])c4)c(Oc4cnc5[nH]ccc5c4)c3)CC2)=C(c2ccc(Cl)cc2)C1 [Venetoclax] + C[C@@H]1COCCN1C2=NC(=NC(=C2)C3(CC3)[S@](=N)(=O)C)C4=C5C=CNC5=NC=C4 [AZD6738] (first compound max 1 µM, 7x7, partner max 10 µM) | -0.0392 | -0.0199 | -0.0395 | -0.0365 | 0.0582 | -0.0301 | -0.0281 | 0.0217 | -0.0119 | -0.0182 | -0.0178 | -0.0578 | -0.0375 | -0.0143 | 0.0052 | -0.0447 | -0.0022 | 0.0022 | -0.0574 | -0.0068 |
| Cc1c2c(nn1C)CSCc1cc(n(C)n1)CSc1cc(c3ccccc3c1)OCCCc1c(C(=O)O)n(C)c3c-2c(Cl)ccc13 [AZD5991] + C1CN(CCC1(C(=O)N[C@@H](CCO)C2=CC=C(C=C2)Cl)N)C3=NC=NC4=C3C=CN4 [Capivasertib] (first compound max 1 µM, 7x7, partner max 3 µM) | 0.0213 | -0.037 | -0.0287 | 0.0258 | 0.0369 | -0.0881 | 0.023 | -0.0186 | 0.0807 | 0.0568 | -0.0488 | 0.0186 | 0.0122 | -0.0335 | -0.0525 | 0.0065 | -0.0539 | 0.0139 | -0.01 | 0.145 |
| CN(CCO)CC[C@H](CSc1ccccc1)Nc1ccc(S(=O)(=O)NC(=O)c2ccc(N3CCC([C@@H](O)c4ccccc4-c4ccc(Cl)cc4)CC3)cc2)cc1S(=O)(=O)C(F)(F)F [AZD4320] + Cn1cnc2c(F)c(Nc3ccc(Br)cc3Cl)c(C(=O)NOCCO)cc21 [Selumetinib] (first compound max 1 µM, 7x7, partner max 3 µM) | 0.0316 | -0.007 | 0.0554 | 0.0527 | 0.0385 | 0.0314 | 0.112 | 0.0514 | 0.0283 | 0.0587 | -0.0401 | 0.0081 | -0.0194 | -0.0208 | 0.0349 | 0.0554 | 0.0228 | 0.0304 | -0.0406 | 0.0455 |
| CN(C)CCCOc1ccc(-c2ccc3ncc4c(c3c2)n(C2CCOCC2)c(=O)n4C)cn1 [AZD0156] + CCN(CCO)CCCOc1ccc2c(Nc3cc(CC(=O)Nc4cccc(F)c4)[nH]n3)ncnc2c1 [AZD2811] (first compound max 1 µM, 7x7, partner max 1 µM) | -0.0101 | -0.0371 | -0.0337 | -0.0159 | -0.0175 | -0.0461 | -0.0063 | -0.0131 | -0.0186 | 0.0035 | -0.072 | -0.0132 | -0.0225 | -0.031 | 0.0518 | 0.0006 | -0.0087 | -0.0823 | -0.0478 | -0.0019 |
| COc1cccc(OCCCN)c1-c1cc(Nc2cnc(C#N)cn2)n[nH]1 [Prexasertib] + C[C@@H]1COCCN1C2=NC(=NC(=C2)C3(CC3)[S@](=N)(=O)C)C4=C5C=CNC5=NC=C4 [AZD6738] (first compound max 1 µM, 7x7, partner max 10 µM) | 0.0641 | 0.0434 | 0.0006 | 0.0009 | -0.0438 | 0.0292 | 0.0645 | -0.0348 | -0.0107 | -0.0192 | 0.0108 | -0.0534 | 0.0204 | -0.0583 | 0.0633 | 0.0378 | 0.0351 | -0.0275 | -0.0647 | -0.0308 |
